From patent publication US8906925B2, “Pyrido[4,3-B]indoles containing rigid moieties” (Medivation Technologies, Inc., priority 2008, dated 2014)

Legend:
[1] = molecular target: human dopamine D2L receptor (Homo sapiens, UniProt P14416); assay: Dopamine D2L radioligand binding ([3H]Spiperone); details: percent inhibition of specific binding, compound at 1 μM; for inhibition at 1 µM: read-out: Inhibition of ligand binding, Dopamine D2L; for Inhibition of ligand binding, Dopamine D2L: 1 µM
Text: Non-specific binding was estimated in the presence of […] Haloperidol. Receptor proteins were filtered and washed, the filters were then counted to determine [^3H]Spiperone specifically bound. […] Biochemical assay results are presented as the percent inhibition of specific binding in Table 9.

[2] = molecular target: human recombinant serotonin (5-Hydroxytryptamine) 5-HT7 receptor (Homo sapiens, UniProt P34969); assay: Serotonin 5-HT7 radioligand binding ([3H]LSD); details: read-out: Inhibition of ligand binding, Serotonin 5-HT7 (percent inhibition of specific binding); for inhibition at 1 µM: compound at 1 μM; for inhibition at 0.1 µM: compound at 0.1 μM
Sequence of human recombinant serotonin (5-Hydroxytryptamine) 5-HT7 receptor (P34969 whole entry): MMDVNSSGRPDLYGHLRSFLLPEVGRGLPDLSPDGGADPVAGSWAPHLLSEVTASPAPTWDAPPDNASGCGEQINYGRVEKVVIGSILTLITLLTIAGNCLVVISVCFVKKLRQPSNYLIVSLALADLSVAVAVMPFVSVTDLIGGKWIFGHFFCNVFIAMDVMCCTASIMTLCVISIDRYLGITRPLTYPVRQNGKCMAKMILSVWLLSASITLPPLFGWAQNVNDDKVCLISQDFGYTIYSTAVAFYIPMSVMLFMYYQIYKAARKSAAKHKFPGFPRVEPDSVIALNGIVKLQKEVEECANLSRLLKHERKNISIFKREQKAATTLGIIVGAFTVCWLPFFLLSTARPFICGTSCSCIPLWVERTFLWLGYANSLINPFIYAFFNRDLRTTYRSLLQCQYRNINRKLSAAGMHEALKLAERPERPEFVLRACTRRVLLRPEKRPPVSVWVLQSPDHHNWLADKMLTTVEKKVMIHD
Text: Receptor proteins were filtered and washed, the filters were then counted to determine [^3H]LSD specifically bound.

[3] = molecular target: T1, human recombinant histamine H2 receptor (Homo sapiens, UniProt P25021); assay: Histamine H2 radioligand binding ([125I]Aminopotentidine); details: read-out: Histamine Binding (1 μM) H2, percent inhibition of specific binding, 1 μM
T1 construct: expressed in transfected cells; host or cells: Chinese hamster ovary (CHO) K1 cells
T1 sequence (P25021 whole entry): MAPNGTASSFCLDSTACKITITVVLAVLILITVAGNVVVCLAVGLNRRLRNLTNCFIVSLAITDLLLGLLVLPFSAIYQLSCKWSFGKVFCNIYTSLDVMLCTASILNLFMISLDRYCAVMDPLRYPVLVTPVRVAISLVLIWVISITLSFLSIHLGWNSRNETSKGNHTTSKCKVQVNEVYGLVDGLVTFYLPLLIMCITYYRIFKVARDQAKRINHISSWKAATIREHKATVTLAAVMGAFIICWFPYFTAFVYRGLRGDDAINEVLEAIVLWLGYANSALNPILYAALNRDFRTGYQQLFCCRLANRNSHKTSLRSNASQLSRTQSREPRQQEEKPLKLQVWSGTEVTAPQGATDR
Procedure, shortened: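 CHO-K1 cells expressing human recombinant H2 receptor, 50 mM phosphate buffer pH 7.4; compounds incubated with 0.1 nM [125I]aminopotentidine for 120 min at 25 °C. Nonspecific binding defined with 3 μM tiotidine; specifically bound radioligand counted after filtration and washing.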

[4] = molecular target: T2, human recombinant serotonin 5-HT1B receptor (Homo sapiens, UniProt P28222); assay: 5-HT1B radioligand binding competition assay ([3H]5-CT, CHO-K1 membranes); details: for 5-HT1B (5 μM) % Binding relative to bound radioligand: in duplicate, average
T2 construct: expressed in transfected cells; host or cells: CHO-K1 cell line, membrane extracts
T2 sequence (P28222 whole entry): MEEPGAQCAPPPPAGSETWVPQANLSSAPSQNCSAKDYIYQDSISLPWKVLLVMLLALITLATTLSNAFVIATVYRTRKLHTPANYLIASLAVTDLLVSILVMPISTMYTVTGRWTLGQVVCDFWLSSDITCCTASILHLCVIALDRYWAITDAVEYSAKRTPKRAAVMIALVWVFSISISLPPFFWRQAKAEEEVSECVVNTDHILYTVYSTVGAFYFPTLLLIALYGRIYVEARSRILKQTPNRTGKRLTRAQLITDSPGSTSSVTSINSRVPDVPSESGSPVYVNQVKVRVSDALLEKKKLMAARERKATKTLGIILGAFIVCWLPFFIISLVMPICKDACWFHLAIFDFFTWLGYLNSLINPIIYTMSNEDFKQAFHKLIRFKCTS
Experimental: To determine the binding activity at the human recombinant serotonin 5-HT1B receptor of compounds of the invention, CHO-K1 cell line expressing the human 5-HT1B recombinant receptor was amplified to prepare membranes used for the radioligand binding assay throughout the study. Radioligand binding competition on 5-HT1B was performed by adding successively in the wells of a 96 well plate (Master Block, Greiner, 786201). […] The plate was incubated 60 min at 25° C. in a water bath and then filtered over GF/B filters (Perkin Elmer, 6005177, presoaked in 0.5% PE1 for 2 h at room temperature) with a Filtration unit (Perkin Elmer). The filters were washed 3× with 0.5 mL of ice-cold washing buffer (50 mM Tris pH 7.4). 50 μL Microscint 20 (Packard) was added and the plate was incubated 15 min on an orbital shaker and then counted with a TopCount™ for 1 min/well.
The reference value thus obtained for the test was compared to a historical value obtained from the same receptor and used to validate the experimental session. […] For replicate determinations, the maximum variability tolerated in the test was of +/−20% around the average of the replicates.
Compounds were tested for binding activity in the radioligand binding competition assay on human 5-HT1B receptor, at one concentration […], in duplicate. Dose-response data from test compounds were analyzed with XLfit (IDBS) software using nonlinear regression applied to a sigmoidal dose-response model.
Dose-response data was analyzed with XLfit (IDBS) software using non-linear regression applied to a sigmoidal dose-response model.

[5] = molecular target: T3, human recombinant serotonin (5-Hydroxytryptamine) 5-HT6 receptor (Homo sapiens, UniProt P50406); assay: Serotonin 5-HT6 radioligand binding ([3H]LSD); details: read-out: Inhibition of ligand binding, Serotonin 5-HT6 (percent inhibition of specific binding); for inhibition at 1 µM: compound at 1 μM; for inhibition at 0.1 µM: compound at 0.1 μM
T3 construct: expressed in transfected cells; host or cells: human HeLa cells
T3 sequence (P50406 whole entry): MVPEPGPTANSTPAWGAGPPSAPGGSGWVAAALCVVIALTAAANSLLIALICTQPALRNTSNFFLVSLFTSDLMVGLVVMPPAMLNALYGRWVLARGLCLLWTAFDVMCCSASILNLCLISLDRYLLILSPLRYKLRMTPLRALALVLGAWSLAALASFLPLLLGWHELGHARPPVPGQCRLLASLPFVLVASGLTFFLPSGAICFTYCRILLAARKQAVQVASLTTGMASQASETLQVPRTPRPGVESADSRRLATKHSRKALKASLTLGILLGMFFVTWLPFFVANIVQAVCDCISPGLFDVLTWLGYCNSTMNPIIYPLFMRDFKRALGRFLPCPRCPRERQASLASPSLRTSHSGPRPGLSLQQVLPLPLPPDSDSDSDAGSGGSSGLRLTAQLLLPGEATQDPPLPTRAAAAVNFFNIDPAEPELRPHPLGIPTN
Experimental: Compounds of the invention were incubated with 1.5 nM [3H]Lysergic acid diethylamide (LSD) for 120 min. at 37° C. […] Receptor proteins were filtered and washed, the filters were then counted to determine [3H]LSD specifically bound. Compounds were screened at 1 μM or lower, using 1% DMSO as vehicle. Biochemical assay results are presented as the percent inhibition of specific binding in Table 10.

[6] = molecular target: T4, human recombinant serotonin (5-Hydroxytryptamine) 5-HT2A receptor (Homo sapiens, UniProt P28223); assay: Serotonin 5-HT2A radioligand binding ([3H]Ketanserin); details: for inhibition at 1 µM: read-out: Inhibition of ligand binding, Serotonin 5-HT2A (percent inhibition of specific binding), compound at 1 μM; for inhibition at 0.1 µM: read-out: Inhibition of ligand binding, Serotonin 5-HT2A (percent inhibition of specific binding), compound at 0.1 μM
T4 construct: expressed in transfected cells; host or cells: Chinese hamster ovary (CHO-K1) cells
T4 sequence (P28223 whole entry): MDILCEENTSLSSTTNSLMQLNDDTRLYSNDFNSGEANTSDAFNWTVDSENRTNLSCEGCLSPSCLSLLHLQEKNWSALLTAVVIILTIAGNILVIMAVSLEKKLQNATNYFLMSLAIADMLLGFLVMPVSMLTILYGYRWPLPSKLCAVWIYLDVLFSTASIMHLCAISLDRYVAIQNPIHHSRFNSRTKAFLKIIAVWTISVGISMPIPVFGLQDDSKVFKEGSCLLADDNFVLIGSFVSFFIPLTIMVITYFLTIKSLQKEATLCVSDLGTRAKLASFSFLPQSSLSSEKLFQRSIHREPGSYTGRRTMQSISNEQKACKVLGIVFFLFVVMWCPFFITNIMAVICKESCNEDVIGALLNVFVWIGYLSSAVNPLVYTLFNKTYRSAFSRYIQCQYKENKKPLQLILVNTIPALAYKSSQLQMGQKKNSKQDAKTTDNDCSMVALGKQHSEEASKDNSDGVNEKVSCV
Experimental: Compounds of the invention were incubated with 0.5 nM [^3H]Ketanserin for 60 min. at 25° C. Non-specific binding was estimated in the presence of 1 μM Mianserin. Receptor proteins were filtered and washed, the filters were then counted to determine [^3H]Ketanserin specifically bound.

[7] = molecular target: histamine receptor H1 (Homo sapiens, UniProt P35367); assay: Histamine H1 radioligand binding ([3H]Pyrilamine); details: for inhibition at 1 µM: read-out: Histamine Binding (1 μM) H1, percent inhibition of specific binding, 1 μM
Sequence of histamine receptor H1 (P35367 whole entry): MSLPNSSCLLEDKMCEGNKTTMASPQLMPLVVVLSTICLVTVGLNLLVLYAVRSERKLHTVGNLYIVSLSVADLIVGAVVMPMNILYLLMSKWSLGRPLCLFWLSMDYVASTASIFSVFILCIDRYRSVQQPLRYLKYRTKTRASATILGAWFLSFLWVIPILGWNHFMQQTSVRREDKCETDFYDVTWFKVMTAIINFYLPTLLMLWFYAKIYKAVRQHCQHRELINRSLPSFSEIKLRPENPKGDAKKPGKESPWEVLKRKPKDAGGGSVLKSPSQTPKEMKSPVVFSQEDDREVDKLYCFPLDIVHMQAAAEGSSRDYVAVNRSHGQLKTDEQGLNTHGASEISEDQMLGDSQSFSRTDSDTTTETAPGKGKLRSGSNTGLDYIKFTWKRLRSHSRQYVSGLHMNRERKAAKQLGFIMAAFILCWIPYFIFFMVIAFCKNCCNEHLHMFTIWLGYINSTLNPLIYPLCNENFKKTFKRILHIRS
Procedure, shortened: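 Values are percent inhibition of specific [3H]pyrilamine (1.2 nM) binding with compounds at ≤1 μM (1% DMSO vehicle); 180 min incubation at 25 °C, pH 7.4 Tris buffer, on CHO-expressed human H1 receptor; 1 μM pyrilamine defined nonspecific binding, bound ligand counted after filtration.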

[8] = molecular target: T5, human recombinant serotonin (5-Hydroxytryptamine) 5-HT2C receptor (Homo sapiens, UniProt P28335); assay: Serotonin 5-HT2C radioligand binding ([3H]Mesulergine); details: read-out: Inhibition of ligand binding, Serotonin 5-HT2C (percent inhibition of specific binding); for inhibition at 1 µM: compound at 1 μM; for inhibition at 0.1 µM: compound at 0.1 μM
T5 construct: expressed in transfected cells; host or cells: Chinese hamster ovary (CHO-K1) cells
T5 sequence (P28335 33-458): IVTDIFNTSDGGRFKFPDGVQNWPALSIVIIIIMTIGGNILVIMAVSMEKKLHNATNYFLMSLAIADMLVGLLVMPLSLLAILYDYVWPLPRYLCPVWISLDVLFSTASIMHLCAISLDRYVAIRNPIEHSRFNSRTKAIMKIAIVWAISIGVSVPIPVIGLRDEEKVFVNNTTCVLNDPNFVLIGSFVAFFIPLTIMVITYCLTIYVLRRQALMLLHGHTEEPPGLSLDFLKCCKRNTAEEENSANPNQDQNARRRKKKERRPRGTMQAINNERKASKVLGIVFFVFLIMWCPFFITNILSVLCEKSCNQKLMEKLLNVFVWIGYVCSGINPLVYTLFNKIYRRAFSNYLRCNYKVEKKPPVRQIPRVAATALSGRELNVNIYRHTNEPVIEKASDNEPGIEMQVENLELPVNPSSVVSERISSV
Procedure, shortened: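 Compounds tested at 1 μM or lower (1% DMSO vehicle) for displacement of 1 nM [3H]Mesulergine over 60 min at 25° C. Specific binding determined by filtration counting, with 1 μM Mianserin defining non-specific binding; values are percent inhibition.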

[9] = system: C57B1I6J mice; assay: Catalepsy in the mouse bar test (EPS model); assay type: in vivo; details: 2 mg/kg i.p.
Text: Antipsychotic drugs are known to induce extrapyramidal syndrome (EPS) in animals and in humans. An animal model considered to be predictive of EPS is the mouse bar test, which measures cataleptic responses to pharmacological agents.
Male C57B1I6J mice from Jackson Laboratories (Bar Harbor, Me.) were used. Mice were received at 6-weeks of age. Upon receipt, mice were assigned unique identification numbers (tail marked) and were group housed with 4 mice/cage in OptiMICE ventilated cages. All animals remained housed in groups of four during the remainder of the study. All mice were acclimated to the colony room for at least two weeks prior to testing and were subsequently tested at an average age of 8 weeks. During the period of acclimation, mice were examined on a regular basis, handled, and weighed to assure adequate health and suitability. Animals were maintained on a 12 h/12 h light/dark cycle. The room temperature was maintained between 20 and 23° C. with a relative humidity maintained between 30% and 70%. Chow and water were provided ad libitum for the duration of the study. In each test, animals were randomly assigned across treatment groups.
The following compounds were used for this study. 1) Compound No. 83, 88 or 90 (0.03, 0.1, 0.3, 1, 3, 10, 30) was dissolved in 3% Tween in PBS and administered orally at a dose volume of 10 mL/kg; 2) Haloperidol (2 mg/kg) was dissolved in 10% DMSO and administered i.p. at a dose volume of 10 mL/kg.
The front paws of a mouse were placed on a horizontal metal bar raised 2″ above a Plexiglas platform and time was recorded for up to 30 seconds per trial. The test ended when the animal's front paws returned to the platform or after 30 seconds. The test was repeated three times and the average of the three trials was reported as the intensity index of catalepsy. Antipsychotic agents such as haloperidol cause rigidity as a side effect. Animals treated with haloperidol will hold on to the bar without moving for several minutes. Mice were brought to the activity experimental room for at least 1 h acclimation to the experimental room conditions prior to testing. Following injection of either vehicle, Compound No. 83, 88 or 90, or haloperidol, catalepsy was assessed at 3 time points: 30 min, 1 h, and 3 h. At the end of each trial, the apparatus was thoroughly cleaned with 70% ethanol.
Data were analyzed by analysis of variance (ANOVA) followed by post-hoc comparisons with Fisher Tests when appropriate. An effect was considered significant if p<0.05.

Sequence of human dopamine D2L receptor (P14416 whole entry): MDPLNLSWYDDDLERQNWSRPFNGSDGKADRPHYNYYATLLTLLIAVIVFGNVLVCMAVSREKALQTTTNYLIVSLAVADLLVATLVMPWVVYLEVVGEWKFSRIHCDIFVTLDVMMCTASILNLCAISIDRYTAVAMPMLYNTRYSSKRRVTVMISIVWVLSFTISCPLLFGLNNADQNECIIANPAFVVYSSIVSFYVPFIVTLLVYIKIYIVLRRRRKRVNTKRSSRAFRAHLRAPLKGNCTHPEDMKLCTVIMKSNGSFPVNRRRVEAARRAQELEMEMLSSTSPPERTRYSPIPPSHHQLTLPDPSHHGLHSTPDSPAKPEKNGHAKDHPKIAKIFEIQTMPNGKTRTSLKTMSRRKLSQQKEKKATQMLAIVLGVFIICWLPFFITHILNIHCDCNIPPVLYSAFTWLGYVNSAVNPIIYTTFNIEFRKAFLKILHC

Row | SMILES | inhibition at 1 µM [1] | inhibition at 1 µM [2] | inhibition at 1 µM [3] | 5-HT1B (5 μM) % Binding relative to bound radioligand [4] | inhibition at 1 µM [5] | inhibition at 1 µM [6] | inhibition at 1 µM [7] | inhibition at 1 µM [8] | Inhibition of ligand binding, Dopamine D2L [1] | inhibition at 0.1 µM [2] | inhibition at 0.1 µM [5] | inhibition at 0.1 µM [6] | Histamine Binding (1 μM) H1, percent inhibition of specific binding [7] | inhibition at 0.1 µM [8] | other results
1 | C/C(=C\n1c2c(c3cc(C)ccc31)CN(C)CC2)c1cccnc1 [Compound 91, (E)-2,3,4,5-tetrahydro-2,8-dimethyl-5-(2-(pyridin-3-yl)prop-1-enyl)-1H-pyrido[4,3-b]indole] | 27% | 95% | 52% | 9% | 76% | 98% | 11% | 100% | – | – | – | – | – | – | IC50 [4]: 365 nM; % Binding relative to bound radioligand (5-HT1B) ([4]; Conc. 0.08 nM): 120%; % Binding relative to bound radioligand (5-HT1B) ([4]; Conc. 5 nM): 129%; % Binding relative to bound radioligand (5-HT1B) ([4]; Conc. 20 nM): 113%; % Binding relative to bound radioligand (5-HT1B) ([4]; Conc. 78 nM): 103%; % Binding relative to bound radioligand (5-HT1B) ([4]; Conc. 313 nM): 66%; % Binding relative to bound radioligand (5-HT1B) ([4]; Conc. 1250 nM): 31%; % Binding relative to bound radioligand (5-HT1B) ([4]; Conc. 20000 nM): 1%; % Binding relative to bound radioligand (5-HT1B) ([4]; Conc. 50000 nM): −5%
2 | CN1CCc2c(c3cccc(Cl)c3n2CC(C)(O)c2ccncc2)C1 (stereo not drawn) [Compound 182, 1-(6-chloro-2-methyl-3,4-dihydro-1H-pyrido[4,3-b]indol-5(2H)-yl)-2-(pyridin-4-yl)propan-2-ol] | 8% | 54% | 53% | 3% | 47% | 91% | 26% | 93% | – | – | – | – | – | – | –
3 | C/C(=C\n1c2c(c3cccc(F)c31)CN(C)CC2)c1ccncc1 [Compound 223, (E)-6-fluoro-2-methyl-5-(2-(pyridin-4-yl)prop-1-enyl)-2,3,4,5-tetrahydro-1H-pyrido[4,3-b]indole] | 96% | 91% | 44% | 4% | 103% | 95% | 6% | 93% | 97% | 67% | 104% | 97% | 11% | 81% | –
4 | C/C(=C/n1c2c(c3cc(C)ccc31)CN(C)CC2)c1ccncc1 [Compound 224, (Z)-2,8-dimethyl-5-(2-(pyridin-4-yl)prop-1-enyl)-2,3,4,5-tetrahydro-1H-pyrido[4,3-b]indole] | 65% | 91% | 58% | 10% | 102% | 99% | 24% | 97% | 80% | 88% | 96% | 92% | 26% | 95% | –
5 | O=C(CCCN1CCC(O)(c2ccc(Cl)cc2)CC1)c1ccc(F)cc1 [Haloperidol, haloperidol, reference compound] | – | – | – | – | – | – | – | – | – | – | – | – | – | – | catalepsy (bar test) [9]: increased catalepsy
